The test system of data set [1] is dog. The following applies: Chronic toxicity, beagle, Oral, Capsule, dose end: 52 week, group: systemic.
For data set [2], the system named is rat. The following applies: Subchronic oral toxicity in rodents, other, Feed, dose end: 90 day, group: systemic.
Data set [3] concerns mouse. As to conditions: Carcinogenicity, cd1, Oral, Feed, dose end: 78 week, group: systemic.
In data set [4] the test system is dog. As to conditions: Subchronic oral toxicity in nonrodent, beagle, Capsule, dose end: 96 day, group: systemic.
The subject of data set [5] is rat. As to conditions: Subchronic oral toxicity in rodents, other, Feed, dose end: 90 day, group: systemic. The source holds these as a separate data set.
Data set [6] has as its system mouse. As to conditions: Subchronic oral toxicity in rodents, cd1, Feed, dose end: 90 day, group: systemic.
The subject of data set [7] is rat. The following applies: Sub-acute repeat dose toxicity, sprague dawley, Oral, Gavage/Intubation, dose end: 28 day, group: systemic.
The subject of data set [8] is dog. The following applies: Sub-acute repeat dose toxicity; beagle; Oral; Gavage/Intubation; dose end: 30 day; group: systemic; systemic / in life observation / clinical signs / emesis + systemic / clinical chemistry / [other] / [other] + systemic / clinical chemistry….
Data set [9] deals with rat. As to conditions: Sub-acute repeat dose toxicity; sprague dawley; Oral; Gavage/Intubation; dose end: 10 day; group: systemic; systemic / clinical chemistry / sorbitol dehydrogenase / sorbitol dehydrogenase.
The subject of data set [10] is dog. As to conditions: Sub-acute repeat dose toxicity, beagle, Oral, Gavage/Intubation, dose end: 10 day, group: systemic.
For data set [11], the system named is mouse. As to conditions: Carcinogenicity, other, Oral, Feed, dose end: 2 year, group: systemic.
Data set [12] deals with rat. As to conditions: Combined chronic toxicity/carcinogenicity, fischer, Oral, Feed, dose end: 105 week, group: systemic.
Data set [13] concerns rat. The following applies: Subchronic oral toxicity in rodents, fischer, Gavage/Intubation, dose end: 13 week, group: systemic.
Data set [14] has as its system mouse. The following applies: Subchronic oral toxicity in rodents, b6c3f1, Gavage/Intubation, dose end: 13 week, group: systemic.
The subject of data set [15] is rat. As to conditions: Carcinogenicity, fischer, Oral, Gavage/Intubation, dose end: 103 week, group: systemic.
Data set [16] deals with rat. The following applies: Prenatal developmental toxicity study, fischer, Oral, Gavage/Intubation, dose end: 15 GD.
Data set [17] deals with mouse. The following applies: Subchronic oral toxicity in rodents, b6c3f1, Feed, dose end: 13 week, group: systemic, systemic / in life observation / body weight / body weight gain.
Data set [18] concerns rat. As to conditions: Combined chronic toxicity/carcinogenicity; fischer; Oral; Feed; dose end: 2 year; group: systemic; systemic / in life observation / body weight / body weight + systemic / in life observation / body weight / body weight gain.
The test system of data set [19] is rat. As to conditions: Multigenerational reproductive toxicity study, fischer, Oral, Feed, dose end: 3 generation.
The subject of data set [20] is rat. The following applies: Subchronic oral toxicity in rodents, fischer, Feed, dose end: 13 week, group: systemic.
For data set [21], the system named is mouse. The following applies: Carcinogenicity; b6c3f1; Oral; Feed; dose end: 2 year; group: systemic; systemic / in life observation / body weight / body weight.
Data set [22] has as its system rabbit. As to conditions: Prenatal developmental toxicity study, new zealand white, Oral, Gavage/Intubation, dose end: 28 GD.
Setting [23] is: systemic / in life observation / body weight / body weight gain.
The mark [24] stands for this setting: systemic / in life observation / body weight / body weight gain + systemic / in life observation / food consumption / food efficiency.
The mark [25] stands for this setting: systemic / in life observation / clinical signs / abdominogenital staining + systemic / in life observation / clinical signs / urinary ….
[26] abbreviates: systemic / in life observation / clinical signs / abdominogenital staining + systemic / in life observation / water consumption / water ….
The mark [27] stands for this setting: systemic / hematology / erythrocyte (rbc) count differential / erythrocyte (rbc) + systemic / hematology / hematocrit (hct) / hematocrit (….
[28] abbreviates: systemic / pathology microscopic / liver / vacuolization.
Setting [29] is: systemic / in life observation / body weight / body weight gain + systemic / in life observation / food consumption / food efficiency + ….
Setting [30] is: systemic / organ weight / spleen / relative to body weight.
Setting [31] is: systemic / pathology microscopic / liver / vacuolization + systemic / hematology / erythrocyte (rbc) count differential / erythrocyte (rbc….
The mark [32] stands for this setting: systemic / clinical chemistry / cholesterol / cholesterol + systemic / clinical chemistry / sorbitol dehydrogenase / sorbitol dehydrogenase….
The mark [33] stands for this setting: systemic / organ weight / liver / absolute.
Setting [34] is: systemic / in life observation / clinical signs / arrhythmia.
[35] abbreviates: systemic / in life observation / clinical signs / arrhythmia + systemic / in life observation / clinical signs / convulsions.
Setting [36] is: systemic / clinical chemistry / alkaline phosphatase (alp/alk) / alkaline phosphatase (alp/alk) + systemic / clinical chemistry / chloride….
Where [37] appears, read: systemic / clinical chemistry / chloride / chloride + systemic / clinical chemistry / potassium / potassium + systemic / clinical chemistry….
The mark [38] stands for this setting: systemic / in life observation / body weight / body weight + systemic / organ weight / kidney / relative to body weight + systemic / ….
The mark [39] stands for this setting: systemic / clinical chemistry / alkaline phosphatase (alp/alk) / alkaline phosphatase (alp/alk) + systemic / clinical chemistry / gamma ….
The mark [40] stands for this setting: systemic / organ weight / spleen / absolute + systemic / organ weight / spleen / relative to body weight.
[41] abbreviates: systemic / in life observation / body weight / body weight + systemic / in life observation / mortality / mortality + systemic / organ ….
Where [42] appears, read: systemic / organ weight / heart / absolute + systemic / organ weight / heart / relative to body weight.
[43] abbreviates: systemic / in life observation / body weight / body weight.
Where [44] appears, read: systemic / in life observation / body weight / body weight + systemic / pathology microscopic / liver / neoplastic nodule + systemic / in ….
The mark [45] stands for this setting: group: developmental, developmental / developmental malformation / general / crown-rump length + developmental / offspring survival late / viability index / ….
Setting [46] is: group: maternal, systemic / in life observation / clinical signs / blood around eyes and nose + systemic / in life observation / clinical signs / emaciation….
Where [47] appears, read: group: offspring, systemic / in life observation / body weight / offspring (pup) weight.
Setting [48] is: group: offspring, systemic / in life observation / body weight / offspring (pup) weight + systemic / organ weight / kidney / absolute.
Setting [49] is: group: parental, systemic / in life observation / body weight / body weight + systemic / pathology microscopic / kidney / casts + systemic / pathology ….
[50] abbreviates: group: developmental, systemic / in life observation / body weight / fetal weight.
[51] abbreviates: group: maternal, systemic / in life observation / body weight / body weight gain + systemic / in life observation / clinical signs / alopecia + systemic / in….

Consider `CCOC(=O)COc1cc(-n2ncc(C(F)(F)F)c(C)c2=O)c(F)cc1Cl` [Flufenpyr-ethyl], for which the LOAEL in data set [1] (setting [23]) came out at 1000 mg/kg/day; in data set [2] (setting [25]), 595 mg/kg/day; in data set [3] (setting [27]), 402 mg/kg/day; in data set [4] (setting [24]) it was 1000 mg/kg/day; in data set [5] (systemic / in life observation / clinical signs / body surface staining + systemic / in life observation / clinical signs / urinary …) it was 414 mg/kg/day; in data set [6] (setting [28]), 395 mg/kg/day. The LEL amounted to 200 mg/kg/day in data set [1] (setting [24]); 55 mg/kg/day in [2] (setting [26]); 397 mg/kg/day in data set [3] (setting [28]); 100 mg/kg/day in data set [4] (setting [29]); 39 mg/kg/day in data set [5] (setting [30]); 395 mg/kg/day in data set [6] (setting [28]). Moreover, the NEL in data set [1] (setting [24]) is 50 mg/kg/day; in data set [2] (setting [26]), < 55 mg/kg/day; in [3] (setting [28]), 43.5 mg/kg/day; in [4] (setting [29]), < 100 mg/kg/day; in [5] (setting [30]), < 39 mg/kg/day; in data set [6] (setting [31]), 128 mg/kg/day. In addition, the no-observed-adverse-effect level (NOAEL) in data set [1] (setting [24]) was determined as 200 mg/kg/day; in [2] (setting [25]) it was 55 mg/kg/day; in data set [3] (setting [27]), 39.9 mg/kg/day; in data set [4] (setting [29]), 300 mg/kg/day; in data set [5] (systemic / organ weight / spleen / relative to body weight + systemic / in life observation / clinical signs / body surface staining + …), 134 mg/kg/day; in [6] (setting [31]), 128 mg/kg/day.
Take `Cc1nc(C)nc(N2C[C@@H](C)N(c3ccnc([C@@H](C)O)n3)[C@@H](C)C2)n1`: the LOAEL in data set [7] (setting [32]) was > 20 mg/kg/day; in [8], > 6 mg/kg/day; in [9], > 10 mg/kg/day; in data set [10] (setting [35]) it was > 6 mg/kg/day. Moreover, the no observed adverse effect level (NOAEL) in [7] (setting [32]) is ≥ 20 mg/kg/day; in data set [8], ≥ 6 mg/kg/day; in [9], ≥ 10 mg/kg/day; in data set [10] (setting [35]) it was ≥ 6 mg/kg/day. In addition, the LEL in data set [7] (setting [33]) was 2 mg/kg/day; in [8], 6 mg/kg/day; in data set [9], 1 mg/kg/day; in [10] (setting [34]), 1 mg/kg/day. Besides, the NEL in [7] (setting [33]) is < 2 mg/kg/day; in [8], < 6 mg/kg/day; in data set [9] it was < 1 mg/kg/day; in data set [10] (setting [34]) it was < 1 mg/kg/day.
As to `c1ccc(-c2ccccc2)cc1` [Biphenyl], in [11] (setting [36]), the LOAEL was > 1050 mg/kg/day and the no-observed-adverse-effect level (NOAEL) was ≥ 1050 mg/kg/day. Further, in [11] (setting [37]), the LEL stood at 97 mg/kg/day and the NEL is < 97 mg/kg/day. Also, in data set [12] (setting [38]), the LOAEL was > 225 mg/kg/day, the NEL turned out to be 25 mg/kg/day and the no observed adverse effect level (NOAEL) was ≥ 225 mg/kg/day. The LEL in data set [12] (systemic / organ weight / kidney / relative to body weight) came out at 75 mg/kg/day.
For `Clc1ccccc1` [Chlorobenzene], the LOAEL was > 750 mg/kg/day in data set [13] (setting [39]), > 750 mg/kg/day in data set [14] (setting [41]) and > 120 mg/kg/day in data set [15] (setting [44]). The no observed adverse effect level (NOAEL) in data set [13] (setting [39]) was ≥ 750 mg/kg/day; in data set [14] (setting [41]), ≥ 750 mg/kg/day; in [15] (setting [44]), ≥ 120 mg/kg/day. Also, the LEL in [13] (setting [40]), in data set [14] (setting [42]) and in data set [15] (setting [43]) was 60 mg/kg/day each time. Further, the NEL in [13] (setting [40]), in [14] (setting [42]) and in [15] (setting [43]) was < 60 mg/kg/day each time.
For the compound `O=C1CCCCCN1` [Caprolactam], the LEL came out at 1000 mg/kg/day in data set [16] (setting [45]); 100 mg/kg/day in data set [16] (setting [46]); 750 mg/kg/day in data set [17]; 188 mg/kg/day in [18]; 250 mg/kg/day in data set [19] (setting [47]); 500 mg/kg/day in data set [19] (setting [49]). The LEL in data set [20] (setting [23]) was 31 mg/kg/day; in data set [21], 1120 mg/kg/day; in [22] (setting [50]), 150 mg/kg/day; in data set [22] (group: maternal, systemic / in life observation / body weight / body weight gain), 150 mg/kg/day. Also, the lowest observed adverse effect level (LOAEL) in data set [16] (setting [45]) is > 1000 mg/kg/day; in data set [16] (setting [46]) it was > 1000 mg/kg/day; in data set [17], 750 mg/kg/day; in data set [18], 188 mg/kg/day; in [19] (setting [48]) it was > 500 mg/kg/day; in [19] (setting [49]), > 500 mg/kg/day. Further, the lowest-observed-adverse-effect level (LOAEL) in [20] (setting [23]) is 125 mg/kg/day; in [21], 1120 mg/kg/day; in [22] (setting [50]), > 250 mg/kg/day; in data set [22] (setting [51]), > 250 mg/kg/day. The NEL in [16] (setting [45]) was 500 mg/kg/day; in data set [16] (setting [46]) it was < 100 mg/kg/day; in data set [17] it was < 750 mg/kg/day; in data set [18], < 188 mg/kg/day; in data set [19] (setting [47]), 50 mg/kg/day; in data set [19] (group: parental, systemic / in life observation / body weight / body weight) it was 250 mg/kg/day. Also, the NEL in data set [20] (setting [23]) was < 31 mg/kg/day; in [21], < 1120 mg/kg/day; in [22] (setting [50]), 50 mg/kg/day; in data set [22] (setting [51]), 50 mg/kg/day. For the same compound, the no-observed-adverse-effect level (NOAEL) in data set [16] (setting [45]) was ≥ 1000 mg/kg/day; in data set [16] (setting [46]) it was ≥ 1000 mg/kg/day; in data set [17] it was < 750 mg/kg/day; in [18], < 188 mg/kg/day; in data set [19] (setting [48]) it was ≥ 500 mg/kg/day; in [19] (setting [49]) it was ≥ 500 mg/kg/day. The no observed adverse effect level (NOAEL) in data set [20] (systemic / in life observation / body weight / body weight gain + systemic / in life observation / food consumption / food consumption) was 63 mg/kg/day; in data set [21], < 1120 mg/kg/day; in data set [22] (setting [50]) it was ≥ 250 mg/kg/day; in [22] (setting [51]), ≥ 250 mg/kg/day.

What is called LOAEL is the lowest dose or exposure tested at which an adverse effect was seen. Usually NOAEL stands for the highest tested level that showed no adverse finding.

The record behind these values is EPA's ToxRefDB 2.
